One data set addresses DENV NS5 (Dengue virus type 2, UniProt P29990). Description: GTP-binding inhibition of flavivirus NS5 capping enzyme.
Data set [1] concerns the target T1, CHIKV nsP1 (Chikungunya virus, UniProt Q8JUX6).
T1 sequence (Q8JUX6 1-535 limits assumed): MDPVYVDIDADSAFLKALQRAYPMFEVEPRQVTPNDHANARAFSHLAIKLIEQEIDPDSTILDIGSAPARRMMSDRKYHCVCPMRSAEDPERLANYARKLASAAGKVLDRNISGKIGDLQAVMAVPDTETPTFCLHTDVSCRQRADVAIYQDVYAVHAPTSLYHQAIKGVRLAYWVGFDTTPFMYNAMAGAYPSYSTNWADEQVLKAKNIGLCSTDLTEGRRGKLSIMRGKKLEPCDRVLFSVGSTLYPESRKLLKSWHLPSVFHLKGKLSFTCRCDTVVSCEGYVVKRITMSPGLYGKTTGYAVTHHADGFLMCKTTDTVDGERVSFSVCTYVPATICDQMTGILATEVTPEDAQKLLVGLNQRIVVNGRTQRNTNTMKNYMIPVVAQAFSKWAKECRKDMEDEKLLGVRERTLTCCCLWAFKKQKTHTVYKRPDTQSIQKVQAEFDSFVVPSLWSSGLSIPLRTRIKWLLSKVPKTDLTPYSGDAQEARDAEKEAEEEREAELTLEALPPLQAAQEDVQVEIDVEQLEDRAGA
Description: Guanylation inhibition. It is filed as biochemical. To be noted: 200-3.1 µM, 1 hour at 37°C, n=3.

Data set [2] deals with T1, CHIKV nsP1. Description: Fluorescence polarization GTP-competition assay. It is filed as binding. To be noted: for more active against CHIKV nsP1 than Dengue NS5 (selectivity): Ki CHIKV nsP1 vs DENV NS5. In general terms: In fluorescence polarisation assays a small probe gives low polarisation when free and higher when bound to something large.
A further data set has as its system CHIKV (strain OPY1). Description: Live virus testing, CHIKV in BHK cells, plaque assay. To be noted: for CHIKV replication in BHK cells: MOI 0.1, 48 hours; for EC50: Chikungunya virus, BHK, read-out: BHK EC50. It is filed as cell-based, Chikungunya virus.
Another data set relates to Sindbis virus. The data set is described as follows: Live virus testing, Sindbis virus in BHK cells, plaque assay. In kind it is cell-based, Sindbis virus (TE/3'2J). The note with it: for Sindbis virus replication in vitro: BHK cells, MOI 0.1, 48 hours.
The subject of data set [3] is human adenosine-triphosphategated P2X7 receptor. The note with it: ref Fischer et al., 2014; cited from earlier work.
Data set [4] is described as follows: Cytotoxicity assay.
The next data set relates to CHIKV. The data set is described as follows: Live virus testing, CHIKV in Huh 7 cells, plaque assay. It is filed as cell-based. To be noted: Chikungunya virus, read-out: Huh 7 EC50.
Data set [5] can be described thus: Cytotoxicity assay. The note with it: human.
The conditions of data set [6]: cited from earlier work.

Read-outs that look alike come from different tables or passages of the source.

Chain of DENV NS5 (P29990 2492-2758 limits assumed): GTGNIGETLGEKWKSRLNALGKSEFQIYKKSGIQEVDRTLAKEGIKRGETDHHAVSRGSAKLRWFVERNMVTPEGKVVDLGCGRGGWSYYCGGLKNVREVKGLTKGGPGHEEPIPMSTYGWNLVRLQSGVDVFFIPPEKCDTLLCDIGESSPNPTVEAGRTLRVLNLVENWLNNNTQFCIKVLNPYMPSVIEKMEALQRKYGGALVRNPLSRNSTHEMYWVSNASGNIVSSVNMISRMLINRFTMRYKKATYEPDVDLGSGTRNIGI

In general, Ki refers to the equilibrium dissociation constant of an inhibitor or competing ligand from its target. The low end stands for tighter binding, the high end for weaker binding. `CCc1oc2ccccc2c1C(=O)c1cc(Br)c(O)c(Br)c1` [benzbromarone, Benzbromarone, reference compound]: the Ki at DENV NS5 came to 9 ± 0.7 µM; on CHIKV nsP1 [2], 13 ± 0.9 µM. For the same compound, the “inhibition of CHIKV nsP1 guanylation activity” value (shortened to “inhibition”) on CHIKV nsP1 [1] was “only showed inhibitory activity at high µM concentrations”.
With `CC(C)=CCCC1(C)C=Cc2c(O)c3c(c(CC=C(C)C)c2O1)OC12C(=CCCC1C(C)(C)O[C@@]2(C/C=C(\C)C(=O)O)C(=O)O)C3=O` (some centres unmarked) [garcinolic acid], the results for the inhibition constant (Ki) at DENV NS5 and at CHIKV nsP1 [2] were 6.9 ± 0.4 µM and 14.5 ± 4.9 µM, respectively. Also, the “inhibition” value against CHIKV nsP1 [1] was “inhibited CHIKV nsP1 guanlylation activity in a dose dependent manner”. Further, in the data set with CHIKV (strain OPY1), the “CHIKV replication in BHK cells” value is “Neither pyrantel pamoate nor garcinolic acid were able to reduce CHIKV replication in BHK cells”. For the same compound, the “Sindbis virus replication in vitro” value in the data set on Sindbis virus was “did not markedly decrease Sindbis virus replication in vitro”. Moreover, in data set [3], the “Ca(2+) uptake of P2X7 receptor” value is on record as “increase Ca(2+) uptake of the human adenosine-triphosphategated P2X7 receptor”.
What is called CC50 is the concentration that lowers cell viability or growth by half. Read a low CC50 as harm at low concentration. As a reminder, the EC50 is the midpoint of the concentration-response curve. Take `CCCCCc1c2c(cc(O)c1C(=O)O)OC(=O)c1c(cc(OC)cc1C(=O)CCCC)O2` [lobaric acid]: the values for the Ki at DENV NS5 and on CHIKV nsP1 [2] were 43.8 ± 7 µM and 7 ± 0.6 µM, respectively. Besides, the results for the half-maximal cytotoxic concentration (CC50) at 24 h in the data set “Cytotoxicity assay [4]” (hamster) and in “Cytotoxicity assay [5]” were 76.3 ± 2.1 µM and 60.5 ± 3.8 µM, respectively. Moreover, the CC50 at 48 h in “Cytotoxicity assay [4]” (hamster) worked out at 53.8 ± 8.1 µM; in the data set “Cytotoxicity assay [5]”, 50 ± 1.3 µM. The same compound registered a 50% cytotoxic concentration (CC50) in the data set “Cytotoxicity assay [4]” (hamster and human) of 50 to 76 µM. In addition, at CHIKV nsP1 [1], the “inhibition” value is listed as “inhibited CHIKV nsP1 guanlylation activity in a dose dependent manner”. The compound also came in with an average selectivity index in the data set on CHIKV (strain OPY1) (BHK and Huh 7 cells, 24 and 48 hours) of roughly 7. Also, in the data set on CHIKV (strain OPY1), the “CHIKV replication in BHK cells” value is given as “inhibited viral replication efficiently after 48 hours”. Moreover, the EC50 in the data set on CHIKV (strain OPY1) (24 h) amounted to 9.9 ± 2.6 µM; in the data set on CHIKV (strain OPY1) (48 h) it was 8.9 ± 1.3 µM; with CHIKV (Huh-7, 24 h), 16.3 ± 1.2 µM; with CHIKV (Huh-7, 48 h), 5.3 ± 0.4 µM; with Sindbis virus (Sindbis virus, BHK, 48 h, read-out: EC50 Sindbis virus growth) it was 5.9 µM. Moreover, the “more active against CHIKV nsP1 than Dengue NS5 (selectivity)” value at CHIKV nsP1 [2] is recorded as roughly 5 X.
As to `CN1CCCN=C1/C=C/c1cccs1` [pyrantel pamoate, reference compound], the affinity on DENV NS5 corresponds to a Ki of 38 ± 1.5 µM. Further, the “inhibition” value against CHIKV nsP1 [1] is “inhibited CHIKV nsP1 guanlylation activity in a dose dependent manner”. Moreover, the “CHIKV replication in BHK cells” value in the data set on CHIKV (strain OPY1) is “Neither pyrantel pamoate nor garcinolic acid were able to reduce CHIKV replication in BHK cells”. Further, in data set [6], the “absorption in the human intestine” value is reported as “poorly absorbed in the human intestine”. For the same compound, on CHIKV nsP1 [2], the affinity, expressed as Ki, was 5 ± 0.3 µM and the “more active against CHIKV nsP1 than Dengue NS5 (selectivity)” value is on record as roughly 5 X. In addition, the “Sindbis virus replication in vitro” value with Sindbis virus was “did not markedly decrease Sindbis virus replication in vitro”.
